ChEMBL document CHEMBL4840357, “Functionalized Dioxonaphthoimidazoliums: A Redox Cycling Chemotype with Potent Bactericidal Activities against Mycobacterium tuberculosis” (J Med Chem, 2021)
Converted amounts (≈) assume the structure as drawn. The source made the active and inactive calls. No cut-off for these calls is given here.

Key:
[1] = system: Mycobacterium tuberculosis variant bovis BCG; assay: Antimycobacterial activity against Mycobacterium bovis BCG ATCC 35734 incubated for 5 days by broth dilution method; format: functional; settings: ATCC 35734, 120 h, time 5 day
[2] = system: Mycobacterium tuberculosis variant bovis BCG; assay: Induction of ROS generation in Mycobacterium bovis BCG ATCC 35734 at <= 1 times of MIC90 after 90 mins by cellrox-green reagent based assay; format: functional, organism-based
[3] = system: Mycobacterium tuberculosis variant bovis BCG; assay: Induction of ROS generation in Mycobacterium bovis BCG ATCC 35734 at 2 times of MIC90 after 90 mins by cellrox-green reagent based assay; format: functional, organism-based
[4] = system: Mycobacterium tuberculosis variant bovis BCG; assay: Induction of oxidative stress Mycobacterium bovis BCG-pfurA-RFP ATCC 35734 assessed as activation of pfurA at 0.5 to 2 times MIC90 after 24 hrs by fluorescence assay; format: functional, organism-based
[5] = system: Mycobacterium tuberculosis variant bovis BCG; assay: Induction of ROS generation in Mycobacterium bovis BCG ATCC 35734 at 2 times of MIC90 measured upto 24 hrs by cellrox-green reagent based assay; format: functional, organism-based; settings: time hrs <=24
[6] = system: Mycobacterium tuberculosis variant bovis BCG; assay: Bactericidal activity against Mycobacterium bovis BCG ATCC 35734 incubated for 5 days by broth dilution method; format: functional; settings: ATCC 35734, 120 h, time 5 day, read-out: MBC99.9
[7] = system: Mycobacterium tuberculosis variant bovis BCG; assay: Induction of ROS generation in Mycobacterium bovis BCG ATCC 35734 after 90 mins by cellrox-green reagent based assay; format: functional, organism-based
[8] = system: Mycobacterium tuberculosis variant bovis BCG; assay: Antimycobacterial activity against Mycobacterium bovis BCG ATCC 35734 carrying katG loss-of-function mutant assessed fold reduction in MIC at 1 to 2 times of MIC90 incubated for 5 days under solid agar medium; format: functional, organism-based; settings: time 5.0 day
Cell membrane = assay: Induction of cell envelope stress in Mycobacterium bovis BCG ATCC 35734 expressing piniBAC RFP at 100 times MIC90 after 24 hrs by fluorescence analysis; format: functional, subcellular; settings: Mycobacterium tuberculosis variant bovis BCG
[9] = system: Mycobacterium tuberculosis variant bovis BCG; assay: Induction of oxidative stress Mycobacterium bovis BCG-pfurA-RFP ATCC 35734 assessed as activation of pfurA after 24 hrs by fluorescence assay; format: functional, organism-based
[10] = system: Mycobacterium tuberculosis variant bovis BCG; assay: Antimycobacterial activity against Mycobacterium bovis BCG ATCC 35734 carrying katG loss-of-function mutant assessed fold reduction in MIC at 1 to 2 times of MIC90 incubated for 5 days under liquid medium; format: functional, organism-based; settings: time 5.0 day
[11] = system: Mycobacterium tuberculosis variant bovis BCG; assay: Ratio of MIC for antimycobacterial activity against Mycobacterium bovis BCG ATCC 35734 in absence of glycerol to MIC for antimycobacterial activity against Mycobacterium bovis BCG ATCC 35734 in presence of glycerol; format: functional

Row | SMILES | MIC90 [1] | also measured
1 | CCCCCCCCn1c2c([n+](CCCCCC)c1C)C(=O)c1ccccc1C2=O | 0.34 µM | 
2 | Cc1nc2c(n1C)C(=O)c1ccccc1C2=O | > 50 µM | 
3 | CCCCCCCCCC[n+]1c2c(n(CC(C)C)c1C)C(=O)c1ccccc1C2=O | 0.36 µM | 
4 | Cc1n(C)c2c([n+]1C(C)C)C(=O)c1ccccc1C2=O | 6.2 µM | 
5 | CCCCCCCCCCCC[n+]1c2c(n(CC(C)C)c1C)C(=O)c1ccccc1C2=O | 0.54 µM | 
6 | CCn1c(C)nc2c1C(=O)c1ccccc1C2=O | > 50 µM | 
7 | CCCCCCCCn1c2c([n+](CCCCCCCC)c1C)C(=O)c1ccccc1C2=O | 0.88 µM | 
8 | Cc1n(CC(C)C)c2c([n+]1C(C)C)C(=O)c1ccccc1C2=O | 5.6 µM | 
9 | CCC(C)[n+]1c2c(n(CC(C)C)c1C)C(=O)c1ccccc1C2=O (stereo not given) | 3.6 µM | 
10 | CCCCn1c2c([n+](CC3CCCCC3)c1C)C(=O)c1ccccc1C2=O | 0.35 µM | 
11 | CCCCCCCCCCn1c(C)nc2ccccc21 | 15 µM (≈ 4.09 µg/mL) | 
12 | Cc1n(CC(C)C)c2c([n+]1CC(C)C)C(=O)c1ccccc1C2=O | 1.9 µM | 
13 | CCCCn1c2c([n+](C3CCCCC3)c1C)C(=O)c1ccccc1C2=O | 1.4 µM | 
14 | CCCCCCCCn1c(C)[n+](CCCC)c2ccccc21 | > 50 µM | 
15 | CCn1c2c([n+](CC)c1C)C(=O)c1ccccc1C2=O | 17 µM | 
16 | CCCn1c2c([n+](C3CC3)c1C)C(=O)c1ccccc1C2=O | 17 µM | 
17 | CCCCn1c2c([n+](CCC3CCCCC3)c1C)C(=O)c1ccccc1C2=O | 0.37 µM | 
18 | CCCn1c2c([n+](CC)c1C)C(=O)c1ccccc1C2=O | 8.3 µM | 
19 | NNC(=O)c1ccncc1 [ISONIAZID] |  | MIC50 [1]: 1.6 µM (≈ 0.219 µg/mL)
20 | CCCCCCCCn1c(C)nc2c1C(=O)c1ccccc1C2=O | 11 µM (≈ 3.57 µg/mL) | Activity [2]: inactive; Activity [3]: Active; Activity [4]: inactive
21 | CCCCn1c2c([n+](CCCC)c1C)C(=O)c1cccnc1C2=O | 12 µM | 

Row | SMILES | MIC90 [1] | also measured
22 | CCCCCCCCCCn1c(C)nc2c1C(=O)c1ccccc1C2=O | 47 µM (≈ 16.6 µg/mL) | 
23 | CCCn1c2c([n+](C(C)C)c1C)C(=O)c1ccccc1C2=O | 21 µM | 
24 | CCCCCn1c(C)nc2c1C(=O)c1ccccc1C2=O | 39 µM (≈ 11 µg/mL) | 
25 | CCCCCCCCn1c2c([n+](CCCCC)c1C)C(=O)c1ccccc1C2=O | 0.33 µM | 
26 | CCCCn1c(C)nc2ccccc21 | > 50 µM | 
27 | CCCCCCn1c2c([n+](CCCCCC)c1CC)C(=O)c1ccccc1C2=O | 0.52 µM | 
28 | CCCCn1c2c([n+](C(C)CC)c1C)C(=O)c1ccccc1C2=O (stereo not given) | 3.1 µM | 
29 | CCCn1c2c([n+](C(C)CC)c1C)C(=O)c1ccccc1C2=O (stereo not given) | 5.5 µM | 
30 | CCCCCCCCCn1c2c([n+](CCCCCCCCC)c1C)C(=O)c1ccncc1C2=O | 2.6 µM | 
31 | CCCCn1c2c([n+](C3CCC4(CCCCC4)CC3)c1C)C(=O)c1ccccc1C2=O.[Br-] | 0.3 µM | MIC50 [1]: 0.13 µM; Activity [5]: Active; MBC [6]: 1.3 µM; Activity [7]: Dose-Dependent Effect; Activity [8]: Active; Activity (Cell membrane): inactive; Activity [9]: Dose-Dependent Effect; Activity [10]: inactive; Ratio [11]: < 2
32 | CCC[n+]1c2c(n(CC(C)C)c1C)C(=O)c1ccccc1C2=O | 3 µM | 
33 | CCCCCCCCCCn1c2c([n+](C(C)CC)c1C)C(=O)c1ccccc1C2=O (stereo not given) | 0.52 µM | 
34 | CCCCn1c2c([n+](C3CC3)c1C)C(=O)c1ccccc1C2=O | 6.9 µM | 
35 | CCCCCCCCn1c2c([n+](CCCC)c1C)C(=O)c1cccnc1C2=O | 3.3 µM | 
36 | CCCCn1c2c([n+](CCCC)c1C)C(=O)c1ccncc1C2=O | 21 µM | 
37 | Cc1n(CC(C)C)c2c([n+]1C)C(=O)c1ccccc1C2=O | 6.3 µM | 
38 | CCCCn1c2c([n+](CCCC)c1C)C(=O)c1ccccc1C2=O | 1.9 µM | 
39 | CCC[n+]1c2c(n(C)c1C)C(=O)c1ccccc1C2=O | 18 µM | 
40 | CCCCCCn1c2c([n+](C3CCC4(CCCCC4)CC3)c1C)C(=O)c1ccccc1C2=O | 0.15 µM | MBC [6]: 0.2 µM
41 | CC(C)/N=c1\cc2n(-c3ccc(Cl)cc3)c3ccccc3nc-2cc1Nc1ccc(Cl)cc1 [CLOFAZIMINE] | 0.4 µM (≈ 0.189 µg/mL) | MIC50 [1]: 0.2 µM (≈ 0.0947 µg/mL)
42 | CC[n+]1c2c(n(C(C)C)c1C)C(=O)c1ccccc1C2=O | 15 µM | 

Row | SMILES | MIC90 [1] | also measured
43 | CCCCCCCCn1c2c([n+](CCCCCCCC)c1C)C(=O)c1cccnc1C2=O | 10 µM | 
44 | CCCCCCn1c(C)nc2c1C(=O)c1ccccc1C2=O | 15 µM (≈ 4.45 µg/mL) | Activity [2]: inactive; Activity [3]: Active; Activity [4]: inactive
45 | Cc1n(C(C)C)c2c([n+]1C(C)C)C(=O)c1ccccc1C2=O | 25 µM | 
46 | CCC(C)[n+]1c2c(n(C(C)C)c1C)C(=O)c1ccccc1C2=O (stereo not given) | 11 µM | 
47 | CC[n+]1c2c(n(CC(C)C)c1C)C(=O)c1ccccc1C2=O | 4.9 µM | 
48 | Cc1n(C)c2c([n+]1C)C(=O)c1ccccc1C2=O | 40 µM | 
49 | CCCn1c(C)nc2c1C(=O)c1ccccc1C2=O | > 50 µM | 
50 | CCCCCCn1c2c([n+](CCCCCC)c1C)C(=O)c1ccccc1C2=O | 0.22 µM | MIC50 [1]: 0.11 µM; MBC [6]: 0.64 µM; Ratio [11]: < 2
51 | CCCCCCCCCCCCn1c(C)nc2ccccc21 | 10 µM (≈ 3 µg/mL) | 
52 | CCCCCCCCCCCCn1c2c([n+](CCCCCCCCCCCC)c1C)C(=O)c1ccccc1C2=O | 4.8 µM | 
53 | CCCC[n+]1c2c(n(C(C)C)c1C)C(=O)c1ccccc1C2=O | 3.1 µM | 
54 | CCCC[n+]1c2c(n(CCC)c1C)C(=O)c1ccccc1C2=O | 2.3 µM | 
55 | CCC(C)[n+]1c2c(n(C)c1C)C(=O)c1ccccc1C2=O (stereo not given) | 13 µM | 
56 | CCn1c2c([n+](C3CC3)c1C)C(=O)c1ccccc1C2=O | 15 µM | 
57 | CCCCn1c2c([n+](Cc3ccccc3)c1C)C(=O)c1ccccc1C2=O | 0.43 µM | 
58 | CC[n+]1c2c(n(C)c1C)C(=O)c1ccccc1C2=O | 22 µM | 
59 | CCCCCCCCn1c2c([n+](C(C)CC)c1C)C(=O)c1ccccc1C2=O (stereo not given) | 0.46 µM | 
60 | Cc1n(C)c2c([n+]1C1CC1)C(=O)c1ccccc1C2=O | 34 µM | 
61 | CCC(C)[n+]1c2c(n(C3CC3)c1C)C(=O)c1ccccc1C2=O (stereo not given) | 13 µM | 
62 | CCCC[n+]1c2c(n(C)c1C)C(=O)c1ccccc1C2=O | 6.7 µM | 
63 | CCC(C)[n+]1c2c(n(CC)c1C)C(=O)c1ccccc1C2=O (stereo not given) | 11 µM | 

Row | SMILES | MIC90 [1] | also measured
64 | CCCC[n+]1c2c(n(CC(C)C)c1C)C(=O)c1ccccc1C2=O | 1.5 µM | 
65 | CCCCCCn1c2c([n+](CCCCCC)c1C)C(=O)c1cccnc1C2=O | 2.3 µM | 
66 | CCCCCCCCn1c(C)nc2ccccc21 | 23 µM (≈ 5.62 µg/mL) | 
67 | CCCCCCCCCCn1c2c([n+](CCCCCCCCCC)c1C)C(=O)c1ccccc1C2=O | 3.1 µM | 
68 | Cc1n(C(C)C)c2c([n+]1C1CC1)C(=O)c1ccccc1C2=O | 35 µM | 
69 | CCCCCCCC[n+]1c2c(n(CC(C)C)c1C)C(=O)c1ccccc1C2=O | 0.26 µM | MIC50 [1]: 0.14 µM; Ratio [11]: < 2
70 | CCCCCC[n+]1c2c(n(CC(C)C)c1C)C(=O)c1ccccc1C2=O | 0.3 µM | MIC50 [1]: 0.18 µM; Ratio [11]: < 2
71 | CCCCCC[n+]1c2c(n(CCCC)c1C)C(=O)c1ccccc1C2=O | 0.43 µM | 
72 | Cc1nc2c(n1C(C)C)C(=O)c1ccccc1C2=O | > 50 µM | 
73 | CCCCCCn1c2c([n+](CCCCCC)c1C)C(=O)c1ccncc1C2=O | 5.4 µM | 
74 | Cc1n(CC(C)C)c2c([n+]1C1CC1)C(=O)c1ccccc1C2=O | 6 µM | 
75 | CCCCCCCCn1c2c([n+](CCCCCCCC)c1C)C(=O)c1ccncc1C2=O | 1.1 µM | 
76 | CCCCCCCCn1c2c([n+](C3CCC4(CCCCC4)CC3)c1C)C(=O)c1ccccc1C2=O | 0.2 µM | MIC50 [1]: 0.11 µM; MBC [6]: 0.2 µM
77 | CCCCCCn1c2c([n+](C(C)CC)c1C)C(=O)c1ccccc1C2=O (stereo not given) | 0.66 µM | 
78 | CCCCn1c2c([n+](CC)c1C)C(=O)c1ccccc1C2=O | 7.7 µM | 
79 | Cc1n(C2CC2)c2c([n+]1C1CC1)C(=O)c1ccccc1C2=O | 37 µM | 
80 | CCCCn1c2c([n+](C3CCCCCCC3)c1C)C(=O)c1ccccc1C2=O | 0.6 µM | 
81 | CCCn1c2c([n+](CCC)c1C)C(=O)c1ccccc1C2=O | 25 µM | 
82 | CCCCn1c(C)nc2c1C(=O)c1ccccc1C2=O | > 50 µM | 
83 | CCCCCCCC[n+]1c2c(n(CCCC)c1CC)C(=O)c1ccccc1C2=O | 0.49 µM | 
84 | CCCCn1c2c([n+](CCCN3CCOCC3)c1C)C(=O)c1ccccc1C2=O | 13 µM | 
